{"source": "paper PMC7762498", "about": "“Demethoxycurcumin analogue DMC-BH exhibits potent anticancer effects on orthotopic glioblastomas” (Aging (Albany NY), 2020)", "key": {"[1]": {"assay": "Rat pharmacokinetic study", "type": "in vivo, rats", "set-up": "Vz_F_obs (volume of distribution): unit not given here", "settings": "for MRT last: read-out: MRTlast (mean residence time); for half-life: read-out: T1/2 (half-life) (converted)", "method": "Rat PK studies were performed to study whether DMC-BH is more bioavailable than did DMC.\nFemale Sprague-Dawley (SD) rats (n = 3) were purchased from the Shanghai Experimental Animal Center of Chinese Academy of Science (Shanghai, China). After 3 days of acclimatization, DMC-BH or DMC was administered intravenously into the jugular vein catheters at a dose of 1.00 mg/kg. After oral administration, blood samples (250 μL) were collected via jugular vein catheters at 30, 60, 90, 120, 150, 180 and 240 minutes and 8, 12 and 24 hours. Plasma samples were prepared by centrifuging the blood samples at 13,000 g for 5 minutes. All plasma samples were stored immediately at -80° C until analyzed. Analytes were extracted from 100 μL of plasma with 300 μL of acetonitrile containing 125 ng/mL of the internal standard (midazolam). The samples were thoroughly mixed and centrifuged at 8,000 g. The organic extract was added to 150 μL of 5mM NH4FA and transferred to the autosampler for LC-MS/MS analysis. Multiple reaction monitoring mode, a highly specific and sensitive label-free technique was performed by scanning the most sensitive signals. The pharmacokinetic parameters were determined using non-compartmental analysis (WinNonlin, Pharsight Corporation, Mountain View, CA, USA)."}, "[2]": {"test_system": "human glioblastoma U87-Luc cells", "assay": "Orthotopic glioblastoma xenograft (BLI, immunohistochemistry)", "type": "in vivo, mice", "settings": "for tumor growth (BLI): U87-Luc orthotopic xenograft, nude mice, 20 mg/kg intraperitoneal; for percentage of TUNEL-positive cells / Ki67-positive rate: orthotopic xenograft tissue, 20 mg/kg; for percentage of TUNEL-positive cells: control 3.30% ± 0.26%; for Ki67-positive rate: untreated group 36.73% ± 4.82%", "method": "We used orthotopic glioblastoma xenografts transplanted into mice by human glioblastoma U87-Luc cells to quantify the anti-tumor effect of DMC-BH and DMC. Tumor growth was recorded in vivo using Bioluminescent Imaging (BLI). […] The sizes of the tumors in the mice treated with DMC-BH were much smaller than those in the DMC-treated group or control group (P < 0.05) (Figure 4B). […] In addition, no significant body weight loss occurred in any of the three groups (P > 0.05) (Figure 4C).\nFigure 4 The effects of DMC-BH and DMC on tumor growth in orthotopic glioblastoma xenograft models. (A) U87-Luc xenograft tumor-bearing nude mice were treated with 20 mg/kg DMC-BH, 20 mg/kg DMC or isometric saline for 18 days. The growth of orthotopic glioblastoma xenografts was monitored by BLI. (B) The sizes of orthotopic glioblastoma xenografts were measured using an IVIS spectrum image system. (C) The body weight of animals was measured after DMC-BH, DMC or isometric saline treatment.\nFigure 5 The effects of DMC-BH and DMC on orthotopic glioblastoma growth were analyzed by immunohistochemical staining. (A) The orthotopic glioblastoma growth potential after treatment with 20 mg/kg DMC-BH or DMC treatment was evaluated by Ki67 immunohistochemistry. (B) The orthotopic glioblastoma apoptosis rate after treatment with 20 mg/kg DMC-BH or DMC was analyzed by TUNEL staining.\nThirty-six male nude mice weighing between approximately 18 g and 20 g and aged 6 to 8 weeks were divided into a control group, DMC group and DMC-BH group. The nude mice were handled under a laminar flow hood, and the feed, bedding, cage and contact instruments were all used after high pressure disinfection. The amplified U87-Luc cells were passaged in a 6 cm culture dish and placed in a 5% CO2 incubator. Ten percent chloral hydrate (40 μL/10 g) was used to anesthetize nude mice, and the nude mice were fixed on a stereotaxic apparatus when they were under deep anesthesia. We began to digest the U87-Luc cells once the mice were immobilized. The concentration of cells was 1 × 10^8/mL. Using a micro syringe, we slowly drew up 5 μL cells. Then 5 × 10^5 U87-Luc cells were injected into the caudate nucleus of the nude mice through an infusion of 1 μL/min. The orthotopic glioblastoma growth was quantified by BLI using an IVIS SPECTRUM 200 system (Perkin Elmer). Either DMC-BH or DMC was administered via intraperitoneal injection at a dose level of 20 mg/kg per injection. The drug administration started 10 days after intracranial implantation of U87-Luc cells, and in vivo imaging confirmed that the tumors were formed. The drug was administered continuously for 18 days. Control mice received an equivalent volume of physiologic solution each day. At day 18, all animals were sacrificed by CO2 inhalation.\nAnesthetize mice with 2-3% isoflurane. Inject mice intraperitoneally with D-luciferin (150 μl of 15 mg/ml stock). Ten minutes after luciferin injection assess bioluminescent signal over an integration time of 10 and 60 s using a cooled charge-coupled device (CCD) camera (Spectrum; Caliper Life Sciences, Hopkinton, MA, USA). BLI was used to monitor tumor growth and response to therapy using the IVIS spectrum imaging system.\nFollowing perfusion, the whole brain was immersed in 10% neutral paraformaldehyde buffer solution and fixed for 48 hours at room temperature. Routine dehydration and paraffin embedding were performed after fixation. Paraffin blocks were sliced to a thickness of 3 μm. We dewaxed tissue sections with xylene and rehydrated them through an ethanol gradient. The sections were then rinsed 2 times for 5 minutes with PBS. Incubate with 3% methanol solution of hydrogen peroxide for 20 minutes. Sections were then incubated in 5% goat serum for 10 minutes at room temperature. Serum was removed, and the sections were incubated with the first antibody at 4° C degree overnight. After PBS flushing, we added a secondary biotin-conjugated antibody. […]"}, "p-mTOR": {"test_system": "p-mTOR", "assay": "Western blot of orthotopic xenograft tissue, p-mTOR", "type": "in vivo, mice", "settings": "U87 orthotopic xenografts, versus control", "text": "The PI3K/Akt/mTOR signaling pathway is over activated in glioma tissues, and this increased activation is closely related to malignancy and chemoresistance of gliomas. Previous research reported that among its potential anti-tumor actions in breast cancer, DMC targeted multiple AMPK downstream pathways involving dephosphorylation of Akt and mTOR inhibition. Because DMC-BH is a DMC derivative, we further investigated the inhibitory effects of DMC-BH on gliomas by targeting the Akt/mTOR signaling pathway. We evaluated the expression of p-Akt, and p-mTOR in tumor tissues after DMC-BH treatment (Figure 6A). […] No significant changes were found in total Akt and mTOR expression. Moreover, the expression of p-Akt and p-mTOR in the DMC group was decreased with that in the control group (P < 0.05).\nFigure 6 The effects of DMC-BH and DMC on the Akt/mTOR signaling pathway in U87 orthotopic glioblastoma xenografts. (A) Total protein was extracted from U87 orthotopic glioblastoma xenografts. Then p-Akt and p-mTOR protein expression was detected by Western blot. (B) The column chart illustrates the relative expression levels of these proteins."}, "[3]": {"settings": "female, Sprague-Dawley, plasma, iv, 1.00 mg/kg"}, "[4]": {"settings": "female, Sprague-Dawley, plasma, po, i.g., 10.0 mg/kg"}}, "note": "Like-named read-outs stand apart in the source and are kept apart here.", "data": [{"molecule": "COc1cc(C=CC(=O)CC(=O)C=Cc2ccc(O)c(CN3CCCC3)c2)ccc1O", "note": "[DMC-BH, 1-[4-Hydroxy-3-(pyrrolidin-1-ylmethyl)phenyl]-7-(4-hydroxy-3-methoxyphenyl) hepta-1,6-diene-3,5-dione]", "values": [{"measurement": "AUC(0-t)", "setting": "[1]; [3]", "value": "634 ± 127", "unit": "ng·h/mL"}, {"measurement": "Cmax", "setting": "[1]; female, Sprague-Dawley, plasma, iv, 1.00 mg/kg, read-out: Cmax", "value": "938 ± 231", "unit": "ng/mL"}, {"measurement": "MRT last", "setting": "[1]; [3]", "value": "1.85 ± 0.21", "unit": "h"}, {"measurement": "half-life", "setting": "[1]; [3]", "value": "2.54 ± 0.23", "unit": "h"}, {"measurement": "Tmax", "setting": "[1]; female, Sprague-Dawley, plasma, iv, 1.00 mg/kg, read-out: Tmax", "value": 0.08, "unit": "h"}, {"measurement": "Vd", "setting": "[1]; female, Sprague-Dawley, plasma, iv, 1.00 mg/kg, read-out: Vz_F_obs (volume of distribution)", "value": "4.9 ± 0.783", "unit": "L/kg"}, {"measurement": "bioavailability", "setting": "[1]; female, Sprague-Dawley, plasma, oral, i.g. 10.0 mg/kg versus i.v. 1.00 mg/kg, read-out: F (percent oral bioavailability)", "value": 57.1, "unit": "%"}, {"measurement": "AUC(0-t)", "setting": "[1]; [4]", "value": "3620 ± 623", "unit": "ng·h/mL"}, {"measurement": "CL/F", "setting": "[1]; female, Sprague-Dawley, plasma, po, i.g., 10.0 mg/kg, read-out: Cl_F_obs (plasma clearance rate) (converted)", "value": 113, "unit": "mL/min/kg"}, {"measurement": "Cmax", "setting": "[1]; female, Sprague-Dawley, plasma, po, i.g., 10.0 mg/kg, read-out: Cmax", "value": "1260 ± 385", "unit": "ng/mL"}, {"measurement": "MRT last", "setting": "[1]; [4]", "value": "4.21 ± 0.16", "unit": "h"}, {"measurement": "half-life", "setting": "[1]; [4]", "value": "7.82 ± 1.54", "unit": "h"}, {"measurement": "Tmax", "setting": "[1]; female, Sprague-Dawley, plasma, po, i.g., 10.0 mg/kg, read-out: Tmax", "value": "1.45 ± 0.35", "unit": "h"}, {"measurement": "Vd/F", "setting": "[1]; female, Sprague-Dawley, plasma, po, i.g., 10.0 mg/kg, read-out: Vz_F_obs (volume of distribution)", "value": "54.4 ± 19.1", "unit": "L/kg"}, {"measurement": "Cl F obs (plasma clearance rate)", "setting": "[1]; i.v., 1.00 mg/kg", "value": "24.6 ± 4.28", "unit": "mL/min/kg"}, {"measurement": "increased exposure (AUC) when administered orally compared to DMC", "setting": "[1]; oral", "value": "approximately 6 fold"}, {"measurement": "tumor growth (BLI)", "setting": "[2]", "value": "much greater tumor suppressive effects"}, {"measurement": "percentage of TUNEL-positive cells", "setting": "[2]", "value": "28.68% ± 5.15%"}, {"measurement": "Ki67-positive rate", "setting": "[2]", "value": "6.38% ± 1.38%"}, {"measurement": "p-mTOR expression in tumor tissues", "setting": "p-mTOR", "value": "significantly decreased"}]}, {"molecule": "Demethoxycurcumin [DMC, reference compound]", "values": [{"measurement": "F (percent oral bioavailability)", "setting": "[1]; i.g. 10.0 mg/kg versus i.v. 1.00 mg/kg", "value": 8.3, "unit": "%"}, {"measurement": "AUClast", "setting": "[1]; i.g., 10.0 mg/kg", "value": "620 ± 271", "unit": "ng·h/mL"}, {"measurement": "Cl F obs (plasma clearance rate)", "setting": "[1]; i.g., 10.0 mg/kg", "value": "12.8 ± 1.63", "unit": "mL/min/kg"}, {"measurement": "Cmax", "setting": "[1]; i.g., 10.0 mg/kg", "value": "216 ± 46", "unit": "ng/mL"}, {"measurement": "MRTlast (mean residence time)", "setting": "[1]; i.g., 10.0 mg/kg", "value": "3.12 ± 0.45", "unit": "h"}, {"measurement": "T1/2 (half-life)", "setting": "[1]; i.g., 10.0 mg/kg", "value": "4.32 ± 1.98", "unit": "h"}, {"measurement": "Tmax", "setting": "[1]; i.g., 10.0 mg/kg", "value": "0.67 ± 0.12", "unit": "h"}, {"measurement": "Vz_F_obs (volume of distribution)", "setting": "[1]; i.g., 10.0 mg/kg", "value": "6543 ± 687"}, {"measurement": "AUClast", "setting": "[1]; i.v., 1.00 mg/kg", "value": "742 ± 254", "unit": "ng·h/mL"}, {"measurement": "Cl F obs (plasma clearance rate)", "setting": "[1]; i.v., 1.00 mg/kg", "value": "21.6 ± 3.67", "unit": "mL/min/kg"}, {"measurement": "Cmax", "setting": "[1]; i.v., 1.00 mg/kg", "value": "754 ± 275", "unit": "ng/mL"}, {"measurement": "MRTlast (mean residence time)", "setting": "[1]; i.v., 1.00 mg/kg", "value": "1.32 ± 0.29", "unit": "h"}, {"measurement": "T1/2 (half-life)", "setting": "[1]; i.v., 1.00 mg/kg", "value": "1.24 ± 0.21", "unit": "h"}, {"measurement": "Tmax", "setting": "[1]; i.v., 1.00 mg/kg", "value": "0.08 ± 0.00", "unit": "h"}, {"measurement": "Vz_F_obs (volume of distribution)", "setting": "[1]; i.v., 1.00 mg/kg", "value": "5421 ± 432"}, {"measurement": "tumor growth (BLI)", "setting": "[2]", "value": "slight but significant tumor inhibitory effects"}, {"measurement": "percentage of TUNEL-positive cells", "setting": "[2]", "value": "3.33% ± 0.31%"}, {"measurement": "Ki67-positive rate", "setting": "[2]", "value": "22.17% ± 5.10%"}, {"measurement": "p-mTOR expression in tumor tissues", "setting": "p-mTOR", "value": "decreased"}]}]}
